Experimental data published in patent US20090264528A1, “SERINE PALMITOYLCOA TRANSFERASE (SPT) INHIBITION BY MYRIOCIN OR GENETIC DEFICIENCY DECREASES CHOLESTEROL ABSORPTION” (The Research Foundation of State University of New York, priority 2008, published 2009).
Entries after “also recorded” stand apart in the source; their conditions may differ.

Columns and labels:
[1] = Mouse plasma lipid measurement; type: in vivo; conditions: for plasma Chol (cholesterol) / plasma PC (phosphatidylcholine) / plasma SM (sphingomyelin) / plasma TG (triglycerol): mean ± SD, N=6
Description: Mice and diet: Male C57BL/6J and apoE KO (Apolipoprotien E knockout) mice with a C57BL/6J background were obtained from the Jackson Laboratory (Bar Harbor, Me.). Sptlc1 heterozygous KO mice with a C57BL/6 background were created and bred in the inventors' laboratory. Myriocin was mixed with a chow diet. Eight- to 12-week-old WT or apoE KO (n=6) mice received myriocin 0.3 mg kg^−1·d^−1 for 12 weeks. The myriocin dose was chosen from a previous dose-dependent experiment with apoE-KO mice. Controls consisted of WT or apoE KO mice fed a chow diet (n=6). Sptlc1 heterozygous KO (Sptlc1^+/−)(n=6) and WT mice were also fed a chow diet. […]
As reported previously in (25), which is incorporated by reference herein, Sptlc1^+/− and WT mice had identical plasma lipid levels (Table 1).

[2] = system: cholesterol absorption; test: Absorption of [14C]cholesterol after a single gavage (intestine, liver, bile, plasma); type: in vivo, mouse; conditions: 24 hours after single gavage, mean ± SD, n=5
Description: Cholesterol absorption studies: A classical fecal dual-isotope ratio method was used for the cholesterol absorption study. Briefly, a mixture of [^14C]-labeled (0.1 microCi) and unlabeled cholesterol (0.5 mg) and [^3H]sitostanol (0.2 microCi) in 15 microl of olive oil was fed to mice (10-12 weeks old). Feces were collected for 24 hours. The cholesterol absorption ratio was calculated as: % absorption={1−[fecal(^14C/^3H)]/administered(^14C/^3H)}×100. In some cases, mice were sacrificed, plasma collected, and radioactivity counted. Small intestines (from duodenum to ileum) were washed and cut into 2 cm segments. Each of these, as well as a part of the liver, were digested and radioactivity counted individually.
Next, the amounts of [^14C]cholesterol present in the intestine and those transported to plasma, liver, and bile in 24 hours were measured after a single bolus of radiolabeled cholesterol.

[3] = system: ABCA1 mRNA; test: Real-time PCR, ABCA1 mRNA; type: in vivo, mouse; conditions: for decrease of ABCA1 mRNA levels: liver, P<0.05; for decrease of ABCA1 mRNA levels compared with controls: small intestine, P<0.01
Description: FIGS. 9A-F depict that Mouse small intestine and liver NPC1L1, ABCG5/G8, and ABCA1 mRNA measurements. NPC1L1, ABCG5/G8, and ABCA1 mRNA levels were measured by real-time PCR as described in “Methods and Materials.” FIG. 9A, jejunum from WT mice with or without myriocin treatment; FIG. 9B, jejunum from apoE KO mice with or without myriocin treatment; FIG. 9C, jejunum from WT and Sptlc1^+/− mice; FIG. 9D, liver from WT mice with or without myriocin treatment; FIG. 9E, liver from apoE KO mice with or without myriocin treatment; FIG. 9F, liver from WT and Sptlc1^+/− mice. Values are mean±SD, n=5. *P<0.01.
Real-time PCR examined genes' expression: Mice were sacrificed by cervical dislocation. Jejunum was dissected, and total RNA extracted with Trizol (Invitrogen). cDNA was synthesized with an Invitrogen kit. Polymerase chain reaction (PCR) was performed on a total volume of 20 microl with the sybergreen kit from Applied Biosystems, 18S being used as an internal control. The amplification program consisted of activation at 95 degrees C. for 10 minutes, followed by 40 amplification cycles: 95 degrees C. for 15 seconds, 60 degrees C. for 1 minute. Each sample was triplicated. The genes' relative expression was expressed as mean±SD. The primers are located in the below table which lists the name, sequence, and sequence identification number.
For further elucidation of the possible mechanisms for cholesterol absorption reduction in the SPT-deficient small intestine, NPC1L1, ABCG5/G8, and ABCA1 mRNA levels in myriocin-treated WT, apoE KO, and Sptlc1^+/− mice, as well as in controls were measured. […] Moreover, intestinal MTP activity was not influenced by SPT deficiency (data not shown). Also, the liver mRNA levels were measured to find that myriocin treatment or Sptlc1 deficiency has no influence on ABCG5/G8 mRNA levels […]. […] NPC1L1 mRNA in WT or Sptlc1^+/− livers were not detected (data not shown).

[4] = system: small intestine; test: Small intestine morphology, hematoxylin and eosin staining; type: in vivo, mouse; conditions: WT and apoE KO mice after myriocin treatment
Description: The small intestine was dissected out and put into 4% paraformaldehyde for fixation overnight. The tissue was then sliced (10 micrometer thick). Each slice was deparaffinized and stained with hematoxylin and eosin. The morphology was checked by microscope. WT mice fed chow diet (FIGS. 2A, 2B) or chow diet plus myriocin (FIGS. 2C, 2D). FIGS. 2A and 2C are at 10× magnification, while FIGS. 2B and 2D are at 40× magnification.
The small intestine was dissected out and put into 4% paraformaldehyde for fixation overnight. The tissue was then sliced (10 micrometer thick). Each slice was deparaffinized and stained with hematoxylin and eosin. The morphology was checked by microscope. apoE KO mice fed chow diet (FIGS. 3A, 3B) or chow diet plus myriocin (FIGS. 3C, 3D). FIGS. 3A and 3C are at 10× magnification, while FIGS. 3B and 3D are at 40× magnification.
Mouse small intestine hematoxylin and eosin staining: The small intestine was dissected out and put into 4% paraformaldehyde for fixation overnight. The tissue was then sliced (10 micro m thick). Each slice was deparaffinized and stained with hematoxylin and eosin.
To investigate whether myriocin treatment or Sptlc1^+/− had any impact on small intestine morphology, intestinal sections were stained with hematoxylin and eosin. As shown in FIGS. 2 through 4, neither myriocin treatment nor Sptlc1^+/− influenced the morphology of the small intestine.

Structure (SMILES): CCCCCCC(=O)CCCCCC/C=C/C[C@@H](O)[C@H](O)[C@@](N)(CO)C(=O)O [Myriocin, myriocin]
- plasma Chol (cholesterol) ([1]; ApoE KO mice): 350 ± 42 mg/dL
- plasma PC (phosphatidylcholine) ([1]; ApoE KO mice): 334 ± 49 mg/dL
- plasma SM (sphingomyelin) ([1]; ApoE KO mice): 39 ± 4 mg/dL
- plasma TG (triglycerol) ([1]; ApoE KO mice): 89 ± 13 mg/dL
- effect on plasma lipids, including SM, PC, and cholesterol levels ([1]; WT mice): no significant effect
- plasma Chol (cholesterol) ([1]; WT mice): 95 ± 12 mg/dL
- plasma PC (phosphatidylcholine) ([1]; WT mice): 155 ± 31 mg/dL
- plasma SM (sphingomyelin) ([1]; WT mice): 22 ± 2 mg/dL
- plasma TG (triglycerol) ([1]; WT mice): 71 ± 15 mg/dL
- decrease of plasma SM compared with controls ([1]; apoE KO mice, P<0.001): 48%
- decrease of plasma cholesterol compared with controls ([1]; apoE KO mice, P<0.01): 37%
- [14C]cholesterol in Bile ([2]; ApoE KO mice): 2284 ± 521 dpm/ml
- [14C]cholesterol in Intestine ([2]; ApoE KO mice): 4158 ± 499 dpm/g
- [14C]cholesterol in Liver ([2]; ApoE KO mice): 3337 ± 649 dpm/g
- [14C]cholesterol in Plasma ([2]; ApoE KO mice): 1350 ± 142 dpm/ml
- [14C]cholesterol in Bile ([2]; WT mice): 2108 ± 394 dpm/ml
- [14C]cholesterol in Intestine ([2]; WT mice): 5237 ± 478 dpm/g
- [14C]cholesterol in Liver ([2]; WT mice): 4131 ± 575 dpm/g
- [14C]cholesterol in Plasma ([2]; WT mice): 1734 ± 390 dpm/ml
- decrease of ABCA1 mRNA levels ([3]; WT mice): 20%
- decrease of ABCA1 mRNA levels ([3]; apoE KO mice): 18%
- decrease of ABCA1 mRNA levels compared with controls ([3]; WT mice): 48%
- decrease of ABCA1 mRNA levels compared with controls ([3]; apoE KO mice): 39%
- morphology / pathological changes of the small intestine (gastrointestinal toxicity) [4]: no pathological changes; also recorded: intact villi, epithelia, enterocytes, goblet cells, and brush borders
